From patent publication US20160082066A1, “Method Use of Polymethoxyflavones (PMFs) in Body Composition Management” (priority 2014, published 2016)

How the values were obtained:
[1] = test system: 3T3-L1 preadipocytes; assay: Oil Red O lipid accumulation in differentiating 3T3-L1 preadipocytes; type: cell-based; details: DMI 2 days, then insulin medium with substance 8 days; absorbance at 520 nm; FIG. 1-3
Experimental: Ten days after the initiation of differentiation, lipid accumulation was measured by Oil Red O staining.
3T3-L1 preadipocytes were incubated with DMI (DMEM with IBMX, DEX and insulin) for two days, and then replaced with DMEM medium containing insulin with or without ECG, EGCG and PMFs at indicated concentrations, respectively for 8 days. The 3T3-L1preadipocytes were stained with Oil Red O and photographed. Lipid content was extracted from Oil Red O stained cells by 2-propanol and quantified with spectrophotometric analysis at 520 nm.
3T3-L1 preadipocytes were incubated with DMI (DMEM with IBMX, DEX and insulin) for two days, and then replaced with DMEM medium containing insulin with or without ECG, EGCG and PMFs at indicated concentrations, respectively for 8 days. The 3T3-L1preadipocytes were stained with Oil Red 0. Lipid content was extracted from Oil Red O stained cells by 2-propanol and quantified with spectrophotometric analysis at 520 nm.
3T3-L1 preadipocytes were incubated with DMI (DMEM with IBMX, DEX and insulin) for two days, and then replaced with DMEM medium containing insulin with or without Lychee extracts and PMFs, or in combination at indicated concentrations, respectively for 8 days. […] Lipid content was extracted from Oil Red O stained cells by 2-propanol and quantified with spectrophotometric analysis at 520 nm.

[2] = test system: high-fat diet-induced obesity in mice; details: cited from earlier work
[3] = test system: 3T3-L1 preadipocytes; details: tissue culture; cited from earlier work
[4] = EGCG stand alone; young, healthy adults; cited from earlier work
[5] = target: T1, catechol-O-methyltransferase (Homo sapiens, UniProt P21964); details: cited from earlier work
T1 sequence (P21964 1-271): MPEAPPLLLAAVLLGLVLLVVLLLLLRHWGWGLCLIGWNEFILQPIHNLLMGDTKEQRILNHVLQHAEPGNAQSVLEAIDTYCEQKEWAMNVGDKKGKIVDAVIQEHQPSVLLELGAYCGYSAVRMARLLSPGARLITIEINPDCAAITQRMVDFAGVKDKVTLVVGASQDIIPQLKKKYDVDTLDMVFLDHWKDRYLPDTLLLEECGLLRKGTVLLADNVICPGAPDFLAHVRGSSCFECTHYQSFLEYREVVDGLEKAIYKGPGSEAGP

Compound | lipid accumulation in differentiated adipocytes (Oil Red O staining) [1] | obesity and insulin resistance [2] | differentiation of 3T3-L1 preadipocytes into adipocytes [3] | resting metabolic rate (RMR) and thermal effects of feeding (TEF) [4] | catechol-O-methyltransferase activity [5]
O=C(O[C@@H]1Cc2c(O)cc(O)cc2O[C@@H]1c1ccc(O)c(O)c1)c1cc(O)c(O)c(O)c1 [ECG, epicatechin gallates] | decreased only slightly | – | – | – | –
COc1ccc(-c2cc(=O)c3c(OC)c(OC)c(OC)c(OC)c3o2)cc1OC [nobiletin] | – | alleviating obesity and insulin resistance | potently suppressing | – | –
O=C(O[C@@H]1Cc2c(O)cc(O)cc2O[C@@H]1c1cc(O)c(O)c(O)c1)c1cc(O)c(O)c(O)c1 [EGCG, epigallocatechin gallates] | decreased only slightly | – | – | would not increase | inhibits
